Experimental data: US11813250B2, “Topical formulations containing mTOR inhibitors” (Shanghai Aucta Pharmaceuticals Co., Ltd., priority 2020, dated 2023)
Values after ≈ are worked out from the molar mass of the structure shown. Where two headings read alike, the source gives them in different places.

What was measured:
[1] = cited from earlier work
[2] = Sirolimus isomer C stability in various solvents under 40° C. for 24 hr (HPLC); format: physicochemical
Description: (§1) Sirolimus concentrations are at 20 mg/ml in the solvent and co-solvent systems. The solution was stored at 40° C. oven and samples were evaluated at time 0, 1, 4 and 24 hours with HPLC analysis.

[3] = Seco-Rapamycin in various solvents under 40° C. for 24 hr; format: physicochemical; settings: for percentage of Seco-Rapamycin in the overall amount of sirolimus: 40° C.
Description: as §1
Seco-Rapamycin is a major decomposition product of sirolimus, the open ring conformation of Rapamycin (sirolimus), is also quantitated in the solvent systems. […] The initial concentrations of Seco-Rapamycin were undetectable in the tested samples. Less than 0.5% of sirolimus converted or degraded to Seco-Rapamycin in Propylene Carbonate, DMSO and NMP.

[4] = Solubility in topical solvents; format: physicochemical; settings: organic solvent or mixture
Description: This example evaluated sirolimus and everolimus solubility and stability in various FDA approved topical solvents and co-solvent systems such as diethylene glycol monoethyl ether (Transcutol® P as manufactured by Gattefosse), N-Methyl-2-pyrrolidone (NMP), dimethyl sulfoxide (DMSO), ethanol, Caprylocaproyl polyoxyl-8 glycerides (Labrasol® as manufactured by Gattefosse) and propylene carbonate combined or alone.
The melting point of DMSO is 19° C. (66° F.; 292 K), thus it will freeze under refrigerated condition.

[5] = Everolimus isomer C stability study in various solvents at 50° C.; format: physicochemical
Description: The formulation of this example was prepared in substantially the same manner as the composition of Example 1.
Experiments were performed to study the stability of everolimus in Transcutol P, NMP, DMSO and propylene carbonate under 40° C. at concentration of 20 mg/ml and everolimus in Transcutol P, NMP, DMSO, ethanol, Labrasol and propylene carbonate under 50° C. at concentration of 80 mg/ml. […] DMSO, NMP and propylene carbonate stabilized sirolimus and everolimus and could be used as dissolving agents together or separately.
Everolimus concentrations are at 80 mg/ml in the solvent and co-solvent systems. The said solution was stored at 50° C. oven and samples were evaluated at time 0, 1 h, 2 h and 4 h.

[6] = DMSO, room temperature, read-out: solubility in DMSO
[7] = N-Methyl-2-pyrrolidone (NMP), both room temperature and refrigerated condition, read-out: solubility in NMP
[8] = Transcutol P (diethylene glycol monoethyl ether), both room temperature and refrigerated condition, read-out: solubility in Transcutol P
[9] = propylene carbonate, both room temperature and refrigerated condition, read-out: solubility in propylene carbonate

## CO[C@H]1C[C@@H]2CC[C@@H](C)[C@@](O)(O2)C(=O)C(=O)N2CCCC[C@H]2C(=O)O[C@H]([C@H](C)C[C@@H]2CC[C@@H](O)[C@H](OC)C2)CC(=O)[C@H](C)/C=C(\C)[C@@H](O)[C@@H](OC)C(=O)[C@H](C)C[C@H](C)/C=C/C=C/C=C/1C [Sirolimus]
[1]
  water solubility: poorly water-soluble
[2]; in NMP, DMSO and propylene carbonate within 24 hours
  sirolimus converted to isomer C after time 0: less than 1.5%
[2]; sirolimus 20 mg/ml in 50% NMP + 50% DMSO, 0 h
  Isomer C level (%): 1.07%
[2]; sirolimus 20 mg/ml in 50% NMP + 50% DMSO, 1 h
  Isomer C level (%): 1.15%
[2]; sirolimus 20 mg/ml in 50% NMP + 50% DMSO, 4 h
  Isomer C level (%): 1.46%
[2]; sirolimus 20 mg/ml in 50% NMP + 50% DMSO, 24 h
  Isomer C level (%): 1.46%
[2]; sirolimus 20 mg/ml in DMSO, 0 h
  Isomer C level (%): 1.51%
[2]; sirolimus 20 mg/ml in DMSO, 1 h
  Isomer C level (%): 1.23%
[2]; sirolimus 20 mg/ml in DMSO, 4 h
  Isomer C level (%): 1.72%
[2]; sirolimus 20 mg/ml in DMSO, 24 h
  Isomer C level (%): 2.50%
[2]; sirolimus 20 mg/ml in NMP, 0 h
  Isomer C level (%): 1.00%
[2]; sirolimus 20 mg/ml in NMP, 1 h
  Isomer C level (%): 1.02%
[2]; sirolimus 20 mg/ml in NMP, 4 h
  Isomer C level (%): 1.21%
[2]; sirolimus 20 mg/ml in NMP, 24 h
  Isomer C level (%): 1.46%
[2]; sirolimus 20 mg/ml in Propylene Carbonate, 0 h
  Isomer C level (%): 1.12%
[2]; sirolimus 20 mg/ml in Propylene Carbonate, 1 h
  Isomer C level (%): 1.12%
[2]; sirolimus 20 mg/ml in Propylene Carbonate, 4 h
  Isomer C level (%): 1.46%
[2]; sirolimus 20 mg/ml in Propylene Carbonate, 24 h
  Isomer C level (%): 2.77%
[2]; sirolimus 20 mg/ml in Transcutol P, 0 h
  Isomer C level (%): 4.93%
[2]; sirolimus 20 mg/ml in Transcutol P, 1 h
  Isomer C level (%): 7.11%
[2]; sirolimus 20 mg/ml in Transcutol P, 4 h
  Isomer C level (%): 8.14%
[2]; sirolimus 20 mg/ml in Transcutol P, 24 h
  Isomer C level (%): 8.18%
[3]; in the tested samples, time 0
  initial concentrations of Seco-Rapamycin: undetectable
[3]; sirolimus in 50% NMP + 50% DMSO, 4 h
  percentage of Seco-Rapamycin in the overall amount of sirolimus: 0.09%
[3]; sirolimus in 50% NMP + 50% DMSO, 24 h
  percentage of Seco-Rapamycin in the overall amount of sirolimus: 0.13%
[3]; sirolimus in DMSO, 4 h
  percentage of Seco-Rapamycin in the overall amount of sirolimus: 0.23%
[3]; sirolimus in DMSO, 24 h
  percentage of Seco-Rapamycin in the overall amount of sirolimus: 0.44%
[3]; sirolimus in NMP, 4 h
  percentage of Seco-Rapamycin in the overall amount of sirolimus: 0.12%
[3]; sirolimus in NMP, 24 h
  percentage of Seco-Rapamycin in the overall amount of sirolimus: 0.26%
[3]; sirolimus in Propylene Carbonate, 24 h
  percentage of Seco-Rapamycin in the overall amount of sirolimus: 0.08%
[3]; sirolimus in Transcutol P, 0 h
  percentage of Seco-Rapamycin in the overall amount of sirolimus: 0.20%
[3]; sirolimus in Transcutol P, 1 h
  percentage of Seco-Rapamycin in the overall amount of sirolimus: 0.23%
[3]; sirolimus in Transcutol P, 4 h
  percentage of Seco-Rapamycin in the overall amount of sirolimus: 0.76%
[3]; sirolimus in Transcutol P, 24 h
  percentage of Seco-Rapamycin in the overall amount of sirolimus: 1.06%
[4]; [6]
  solubility: > 100 mg/mL
[4]; [7]
  solubility: > 100 mg/mL
[4]; [8]
  solubility: > 80 mg/mL
[4]; [9]
  solubility: ~30 mg/mL (≈ 32.8 mM)

## CO[C@H]1C[C@@H]2CC[C@@H](C)[C@@](O)(O2)C(=O)C(=O)N2CCCC[C@H]2C(=O)O[C@H]([C@H](C)C[C@@H]2CC[C@@H](OCCO)[C@H](OC)C2)CC(=O)[C@H](C)/C=C(\C)[C@@H](O)[C@@H](OC)C(=O)[C@H](C)C[C@H](C)/C=C/C=C/C=C/1C [Everolimus]
[1]
  water solubility: poorly water-soluble
[5]; everolimus 80 mg/ml in DMSO, 0 h
  Isomer C level (%): 1.63%
[5]; everolimus 80 mg/ml in DMSO, 1 h
  Isomer C level (%): 1.67%
[5]; everolimus 80 mg/ml in DMSO, 2 h
  Isomer C level (%): 1.73%
[5]; everolimus 80 mg/ml in DMSO, 4 h
  Isomer C level (%): 1.86%
[5]; everolimus 80 mg/ml in Ethanol, 0 h
  Isomer C level (%): 1.85%
[5]; everolimus 80 mg/ml in Ethanol, 1 h
  Isomer C level (%): 2.66%
[5]; everolimus 80 mg/ml in Ethanol, 2 h
  Isomer C level (%): 3.81%
[5]; everolimus 80 mg/ml in Ethanol, 4 h
  Isomer C level (%): 5.40%
[5]; everolimus 80 mg/ml in NMP, 0 h
  Isomer C level (%): 1.62%
[5]; everolimus 80 mg/ml in NMP, 1 h
  Isomer C level (%): 1.76%
[5]; everolimus 80 mg/ml in NMP, 2 h
  Isomer C level (%): 1.86%
[5]; everolimus 80 mg/ml in NMP, 4 h
  Isomer C level (%): 1.99%
[5]; everolimus 80 mg/ml in Propylene Carbonate, 0 h
  Isomer C level (%): 1.63%
[5]; everolimus 80 mg/ml in Propylene Carbonate, 1 h
  Isomer C level (%): 1.84%
[5]; everolimus 80 mg/ml in Propylene Carbonate, 2 h
  Isomer C level (%): 2.06%
[5]; everolimus 80 mg/ml in Propylene Carbonate, 4 h
  Isomer C level (%): 2.47%
[5]; everolimus 80 mg/ml in Transcutol P, 0 h
  Isomer C level (%): 1.71%
[5]; everolimus 80 mg/ml in Transcutol P, 1 h
  Isomer C level (%): 3.78%
[5]; everolimus 80 mg/ml in Transcutol P, 2 h
  Isomer C level (%): 5.26%
[5]; everolimus 80 mg/ml in Transcutol P, 4 h
  Isomer C level (%): 6.43%
[5]; from 0 h to 4 h in DMSO, propylene carbonate and NMP, 80 mg/ml
  increase of the assay of everolimus isomer C: less than 1.5%
[4]; [6]
  solubility: > 200 mg/mL
[4]; [7]
  solubility: > 100 mg/mL
[4]; [8]
  solubility: > 100 mg/mL
[4]; [9]
  solubility: > 100 mg/mL
